Laboratory results as given in US20040052754A1, “Complexes of phosphate derivatives” (priority 2000, published 2004).

Experiments:
[1] = Vapour pressure osmometry (dissociation in water); type: physicochemical; conditions: arbitrary scale
Description: A vapour pressure osmometer was used to investigate the dissociation of the di-sodium alpha tocopheryl phosphate N-lauryl imino dipropionate complex by comparing the lowering of the equilibrium temperature to give an identical partial pressure of water vapour around a drop of pure water versus various solutions as an indication of the relative moles of solute.
N-lauryl imino dipropionate alone gives three ions and at 0.05M the effect was 38 units. If the complex was readily dissociated, then the additional tocopheryl phosphate would be expected to increase the effect in the ratio 3:5 by the addition of the charged amino group as a cation and tocopheryl hydrogen phosphate anion.

Human cadaver skin = test: In vitro human skin penetration study; type: in vitro ADME; conditions: analyte tocopheryl acetate
Experimental: DSS was similar in TP and […] content, however, unlike TPC, DSS existed as the mixed sodium salts. A slurry of 6.25 w/w % of 80% DSS in 93.75 w/w % of the 95/5-water/ethanol mixture iwa prepared. Tocopheryl acetate was obtained from Roche/BASF. 5.0 w/w % of TA was dispersed in 95.0 w/w % of 95/5 water/ethanol mixture. The test formulations were evaluated in in vitro human skin penetration studies. […] The tests were conducted by […] International (San Diego, Calif.). Human cadaver skin was obtained and prepared. […] Receptor solutions were collected over 48 hours at pre-selected time intervals. After 48 hours the skin surface was washed with isopropyl alcohol, and the skin was collected and split into epidermis and dermis. The skin sections were extracted with isopropyl alcohol.

CCCCCCCCCCCCN(CCC(=O)O)CCC(=O)O [N-lauryl imino dipropionate] gave an Osmometer effect ([1]; 0.05M in water) of 38 units.
In the case of [Cl-].[Na+] [sodium chloride], the Osmometer effect ([1]; 0.1M in water) is reported as 29 unit.
With CC(=O)Oc1c(C)c(C)c2c(c1C)CCC(C)(CCC[C@H](C)CCC[C@H](C)CCCC(C)C)O2 (stereo partly drawn) [TA, Tocopheryl acetate] the “Dermis/Epidermis Ratio, Tocopheryl Acetate” value (Human cadaver skin; 48 hours) was 0.20, the “Percent distribution recovered: Tocopheryl Acetate, Dermis” value (Human cadaver skin; dermis after 48 hours, 5 μL/cm^2 topical dose) was 1.39 wt/wt % and the “Percent distribution recovered: Tocopheryl Acetate, Epidermis” value (Human cadaver skin; epidermis after 48 hours, 5 μL/cm^2 topical dose) was 7.13 wt/wt %. The “Percent distribution recovered: Tocopheryl Acetate, Surface Wash” value (Human cadaver skin; surface wash after 48 hours, 5 μL/cm^2 topical dose) was 91.48 wt/wt %.
